Reference: patent US20230149362A1, “NEW CAPSULE COMPOSITION FOR PERORAL ADMINISTRATION” (Vicore Pharma AB, priority 2020, published 2023)
Structures can show the parent of a compound that is named as a salt.

Assay: Stability of aqueous solutions of C21 under four storage conditions (sensitivity to light)
Assay type: physicochemical
Conditions: for Amount of Free C21, % of initial / Solution pH: sodium salt solution
Method: The stability of free C21 in 0.9% NaCl pH 9.4 was investigated.
Solutions of 1 mg/mL of C21 were studied for four weeks under four different storage conditions. The solution was filtered through a 0.22 sterile syringe filter to minimize bacterial growth during the stability test. The samples were analysed by HPLC for purity.
The results are summarised in Table 3 below, in which the amount of C21 is given as a percentage of the initial amount of drug. Solution pHs were also measured and are shown within parenthesis in Table 3.
The stability of the sodium salt of C21 was also investigated under the same storage conditions.
At the time for analysis of the one week samples, it was noted that the heating cabinet for storage of samples at 40° C. was broken. In view of this, these samples were thereafter kept at room temperature for three days.

[1] = 40° C., dark, 1 week, heating cabinet found broken

## CCCCOC(=O)NS(=O)(=O)c1sc(CC(C)C)cc1-c1ccc(Cn2ccnc2)cc1 [C21 sodium salt, N-butyloxycarbonyl-3-(4-imidazol-1-ylmethylphenyl)-5-iso-butylthiophene-2-sulfonamide]
Aqueous solution, RT/light
  light-induced degradation: light-induced degradation occurs
5° C., dark, 1 week
  Amount of Free C21, % of initial: 108 % of initial
  Solution pH: (8.5)
5° C., dark, 2 weeks
  Amount of Free C21, % of initial: 113 % of initial
  Solution pH: (8.4)
5° C., dark, 3 weeks
  Amount of Free C21, % of initial: 113 % of initial
  Solution pH: (8.5)
5° C., dark, 4 weeks
  Amount of Free C21, % of initial: 112 % of initial
  Solution pH: (8.5)
5° C., dark, Initial
  Amount of Free C21, % of initial: 100 % of initial
  Solution pH: (8.3)
[1]
  Amount of Free C21, % of initial: 111 % of initial
  Solution pH: (8.6)
40° C., dark, 2 weeks
  Amount of Free C21, % of initial: 111 % of initial
  Solution pH: (8.5)
40° C., dark, 3 weeks
  Amount of Free C21, % of initial: 109 % of initial
  Solution pH: (8.7)
40° C., dark, 4 weeks
  Amount of Free C21, % of initial: 118 % of initial
  Solution pH: (8.1)
40° C., dark, Initial
  Amount of Free C21, % of initial: 100 % of initial
  Solution pH: (8.3)
RT, dark, 1 week
  Amount of Free C21, % of initial: 115 % of initial
  Solution pH: (8.6)
RT, dark, 2 weeks
  Amount of Free C21, % of initial: 110 % of initial
  Solution pH: (8.8)
RT, dark, 3 weeks
  Amount of Free C21, % of initial: 111 % of initial
  Solution pH: (8.8)
RT, dark, 4 weeks
  Amount of Free C21, % of initial: 112 % of initial
  Solution pH: (8.2)
RT, dark, Initial
  Amount of Free C21, % of initial: 100 % of initial
  Solution pH: (8.3)
RT, light, 1 week
  Amount of Free C21, % of initial: 108 % of initial
  Solution pH: (8.4)
RT, light, 2 weeks
  Amount of Free C21, % of initial: 96 % of initial
  Solution pH: (8.0)
RT, light, 3 weeks
  Amount of Free C21, % of initial: 72 % of initial
  Solution pH: (8.3)
RT, light, 4 weeks
  Amount of Free C21, % of initial: 9 % of initial
  Solution pH: (7.3)
RT, light, Initial
  Amount of Free C21, % of initial: 100 % of initial
  Solution pH: (8.3)
